For data set [1], the system named is NQO1 enzymatic activity (Nrf2 transcriptional activity). As to the kind of experiment: NQO1 enzyme activity assay in Hepa1c1c7 cells. As to conditions: Hepa1c1c7, 24 h. The data set is classed as cell-based, mouse.
Data set [2] deals with Hepa1c1c7 mouse hepatoma cells. As to the kind of experiment: Cytotoxicity seen in the NQO1 assay. The data set is classed as cell-based.
The nature of data set [3]: physchem. The settings on record: pH 7.4.
For data set [4], the target named is Keap1 Kelch domain protein (Homo sapiens, UniProt Q14145). As to conditions: 10 μM compound, 5 μM Keap1; Ti Keap1 + vehicle 61.3 °C.
For data set [5] the following is noted: PAMPA, pH 7.4. Background: In PAMPA a lipid-coated filter parts donor from acceptor wells.
The subject of data set [6] is ARPE19 retinal pigment epithelial cells. As to conditions: human.
Data set [7] can be described thus: in vitro. The settings on record: human, Cytotoxicity IC50 concentration.

Each structure is given as a SMILES string. Values after ≈ are worked out from the molar mass of the structure shown. Where a name gives a salt, the structure may show the parent alone.

Experimental findings from paper PMC9150106, “Phenyl Bis-Sulfonamide Keap1-Nrf2 Protein–Protein Interaction Inhibitors with an Alternative Binding Mode” (Journal of Medicinal Chemistry, 2022) are described below.

What is called solubility is the dissolved amount per volume that the medium holds. By IC50 is commonly meant the concentration that inhibits the measured activity by half. Higher therefore signals weaker potency.

Keap1 Kelch domain protein, sequence (Q14145 321-609 limits assumed): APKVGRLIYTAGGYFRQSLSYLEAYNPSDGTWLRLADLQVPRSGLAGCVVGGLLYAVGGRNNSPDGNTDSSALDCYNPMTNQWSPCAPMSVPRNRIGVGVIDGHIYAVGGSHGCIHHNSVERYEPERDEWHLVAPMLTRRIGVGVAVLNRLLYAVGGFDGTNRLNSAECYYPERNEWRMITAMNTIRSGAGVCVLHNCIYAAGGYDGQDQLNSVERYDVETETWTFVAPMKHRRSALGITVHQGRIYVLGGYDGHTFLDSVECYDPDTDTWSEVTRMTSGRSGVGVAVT

With `COC(=O)[C@]12CCC(C)(C)C[C@H]1[C@H]1C(=O)C=C3[C@@]4(C)C=C(C#N)C(=O)C(C)(C)[C@@H]4CC[C@@]3(C)[C@]1(C)CC2` [CDDO-Me, bardoxolone methyl], the “NQO1 induction, concentration-response” value in data set [1] is “Dose-dependent induction”. In addition, the “Concentration above which cytotoxic in NQO1 assay” value in data set [2] is “higher than 1 μM”.
Consider `COc1ccc(S(=O)(=O)N(CC(=O)O)c2ccc(N(CC(=O)O)S(=O)(=O)c3ccc(OC)cc3)c(OC)c2)cc1` [Compound 10, 2,2′-((2-Methoxy-1,4-phenylene)bis(((4-methoxyphenyl)sulfonyl)azanediyl))diacetic Acid], for which, in data set [3], the solubility stood at 271 µg/mL (≈ 456 µM).
Still for that read-out and setting: the same measure for `COc1ccc(S(=O)(=O)N(CC(=O)O)c2ccc(N(CC(=O)O)S(=O)(=O)c3ccc(OC)cc3)c(OCc3ccccc3)c2)cc1` [Compound 11, 2,2′-((2-(Benzyloxy)-1,4-phenylene)bis(((4-methoxyphenyl)sulfonyl)azanediyl))diacetic Acid]: 348 µg/mL (≈ 519 µM); for `CCOc1cc(N(CC(=O)O)S(=O)(=O)c2ccc(OC)cc2)ccc1N(CC(=O)O)S(=O)(=O)c1ccc(OC)cc1` [Compound 31, 2,2′-((2-Ethoxy-1,4-phenylene)bis(((4-methoxyphenyl)sulfonyl)azanediyl))diacetic Acid]: 337 µg/mL (≈ 554 µM); for `CCCCOc1cc(N(CC(=O)O)S(=O)(=O)c2ccc(OC)cc2)ccc1N(CC(=O)O)S(=O)(=O)c1ccc(OC)cc1` [Compound 32, 2,2′-((2-Butoxy-1,4-phenylene)bis(((4-methoxyphenyl)sulfonyl)azanediyl))diacetic Acid]: 362 µg/mL (≈ 569 µM).
Same read-out and setting: the same measure for `COc1ccc(S(=O)(=O)N(CC(=O)O)c2ccc(N(CC(=O)O)S(=O)(=O)c3ccc(OC)cc3)c(Oc3ccccc3)c2)cc1` [Compound 33, 2,2′-((2-Phenoxy-1,4-phenylene)bis(((4-methoxyphenyl)sulfonyl)azanediyl))diacetic Acid]: 363 µg/mL (≈ 553 µM).
Turning to `COc1ccc(S(=O)(=O)N(CC(=O)O)c2ccc(N(CC(=O)O)S(=O)(=O)c3ccc(OC)cc3)c(-c3ccccc3)c2)cc1` [Compound 34, 2,2′-([1,1′-Biphenyl]-2,5-diylbis(((4-methoxyphenyl)sulfonyl)azanediyl))diacetic Acid], the “DSF ΔTi” value in data set [4] was 0.1–1.2 °C. The compound also showed a solubility in data set [3] of 298 µg/mL (≈ 465 µM).
For the compound `CCCOc1cc(N(CC(=O)O)S(=O)(=O)c2ccc(OC)cc2)ccc1N(CC(=O)O)S(=O)(=O)c1ccc(OC)cc1` [Compound 36, 2,2′-((2-Propoxy-1,4-phenylene)bis(((4-methoxyphenyl)sulfonyl)azanediyl))diacetic Acid], in data set [3], the solubility turned out to be 347 µg/mL (≈ 557 µM).
Regarding `COc1ccc(S(=O)(=O)N(CC(=O)O)c2ccc(N(CC(=O)O)S(=O)(=O)c3ccc(OC)cc3)c(OC(C)C)c2)cc1` [Compound 37, 2,2′-((2-Isopropoxy-1,4-phenylene)bis(((4-methoxyphenyl)sulfonyl)azanediyl))diacetic Acid], in data set [3], the concentration in solution (solubility) came to 288 µg/mL (≈ 463 µM). Also, the “logPe (permeability coefficient)” value in data set [5] is listed as -4.74.
Consider `COc1ccc(S(=O)(=O)N(CC(=O)O)c2ccc(N(CC(=O)O)S(=O)(=O)c3ccc(OC)cc3)c(OCc3cccc(OC)c3)c2)cc1` [Compound 38, 2,2′-((2-((3-Methoxybenzyl)oxy)-1,4-phenylene)bis(((4-methoxyphenyl)sulfonyl)azanediyl))diacetic Acid], for which the solubility in data set [3] was 379 µg/mL (≈ 541 µM).
With `COc1ccc(S(=O)(=O)N(CC(=O)O)c2ccc(N(CC(=O)O)S(=O)(=O)c3ccc(OC)cc3)c(O)c2)cc1` [Compound 39, 2,2′-((2-Hydroxy-1,4-phenylene)bis(((4-methoxyphenyl)sulfonyl)azanediyl))diacetic Acid], the solubility in data set [3] turned out to be 343 µg/mL (≈ 591 µM).
Consider `COc1ccc(S(=O)(=O)N(CC(N)=O)c2ccc(N(CC(N)=O)S(=O)(=O)c3ccc(OC)cc3)c(OCc3ccccc3)c2)cc1` [Compound 40, 2,2′-((2-(Benzyloxy)-1,4-phenylene)bis(((4-methoxyphenyl)sulfonyl)azanediyl))diacetamide], for which, in data set [3], the solubility is < 50 µg/mL.
Regarding `COc1ccc(S(=O)(=O)N(CC#N)c2ccc(N(CC#N)S(=O)(=O)c3ccc(OC)cc3)c(OCc3ccccc3)c2)cc1` [Compound 41, N,N′-[2-(Benzyloxy)-1,4-phenylene]bis[N-(cyanomethyl)-4-methoxybenzenesulfonamide]], the solubility in data set [3] was < 50 µg/mL. Besides, in data set [5], the “logPe (permeability coefficient)” value was -4.19.
As for `COc1ccc(S(=O)(=O)N(Cc2nnn[nH]2)c2ccc(N(Cc3nnn[nH]3)S(=O)(=O)c3ccc(OC)cc3)c(OCc3ccccc3)c2)cc1` [Compound 42, N-((1H-Tetrazol-5-yl)methyl)-N-(4-((N-((1H-tetrazol-5-yl)methyl)-4-methoxyphenyl)sulfonamido)-2-(benzyloxy)phenyl)-4-methoxybenzenesulfonamide], the solubility in data set [3] was < 50 µg/mL.
Still for that read-out and setting: the same measure for `COc1ccc(S(=O)(=O)N(Cc2nnn[nH]2)c2ccc(N(CC(=O)O)S(=O)(=O)c3ccc(OC)cc3)c(OCc3ccccc3)c2)cc1` [Compound 51, N-(4-((N-((1H-Tetrazol-5-yl)methyl)-4-methoxyphenyl)sulfonamido)-2-(benzyloxy)phenyl)-N-((4-methoxyphenyl)sulfonyl)glycine]: 254 µg/mL (≈ 366 µM); for `COc1ccc(S(=O)(=O)N(CC(=O)O)c2ccc(N(Cc3nnn[nH]3)S(=O)(=O)c3ccc(OC)cc3)c(OCc3ccccc3)c2)cc1` [Compound 52, N-(4-((N-((1H-Tetrazol-5-yl)methyl)-4-methoxyphenyl)sulfonamido)-3-(benzyloxy)phenyl)-N-((4-methoxyphenyl)sulfonyl)glycine]: 256 µg/mL (≈ 368 µM).
In the case of `COC(=O)/C=C/C(=O)OC` [DMF, dimethyl fumarate], in data set [1], the “NQO1 induction, concentration-response” value was “Dose-dependent induction”.
As to `C[S+]([O-])CCCCN=C=S` (centres unmarked) [Sulforaphane, sulforaphane], the figures for the IC50 in data set [6] and in data set [7] were ~10 µM and 9.89 ± 2.91 µM, respectively.
